According to the Kinase Knowledgebase extract (Sharma et al. 2016):

Biological target: EGFR (UniProt P00533)
Assay: Inhibition of EGFR Kinase Activity

EGFR, sequence (P00533 whole entry, looked up): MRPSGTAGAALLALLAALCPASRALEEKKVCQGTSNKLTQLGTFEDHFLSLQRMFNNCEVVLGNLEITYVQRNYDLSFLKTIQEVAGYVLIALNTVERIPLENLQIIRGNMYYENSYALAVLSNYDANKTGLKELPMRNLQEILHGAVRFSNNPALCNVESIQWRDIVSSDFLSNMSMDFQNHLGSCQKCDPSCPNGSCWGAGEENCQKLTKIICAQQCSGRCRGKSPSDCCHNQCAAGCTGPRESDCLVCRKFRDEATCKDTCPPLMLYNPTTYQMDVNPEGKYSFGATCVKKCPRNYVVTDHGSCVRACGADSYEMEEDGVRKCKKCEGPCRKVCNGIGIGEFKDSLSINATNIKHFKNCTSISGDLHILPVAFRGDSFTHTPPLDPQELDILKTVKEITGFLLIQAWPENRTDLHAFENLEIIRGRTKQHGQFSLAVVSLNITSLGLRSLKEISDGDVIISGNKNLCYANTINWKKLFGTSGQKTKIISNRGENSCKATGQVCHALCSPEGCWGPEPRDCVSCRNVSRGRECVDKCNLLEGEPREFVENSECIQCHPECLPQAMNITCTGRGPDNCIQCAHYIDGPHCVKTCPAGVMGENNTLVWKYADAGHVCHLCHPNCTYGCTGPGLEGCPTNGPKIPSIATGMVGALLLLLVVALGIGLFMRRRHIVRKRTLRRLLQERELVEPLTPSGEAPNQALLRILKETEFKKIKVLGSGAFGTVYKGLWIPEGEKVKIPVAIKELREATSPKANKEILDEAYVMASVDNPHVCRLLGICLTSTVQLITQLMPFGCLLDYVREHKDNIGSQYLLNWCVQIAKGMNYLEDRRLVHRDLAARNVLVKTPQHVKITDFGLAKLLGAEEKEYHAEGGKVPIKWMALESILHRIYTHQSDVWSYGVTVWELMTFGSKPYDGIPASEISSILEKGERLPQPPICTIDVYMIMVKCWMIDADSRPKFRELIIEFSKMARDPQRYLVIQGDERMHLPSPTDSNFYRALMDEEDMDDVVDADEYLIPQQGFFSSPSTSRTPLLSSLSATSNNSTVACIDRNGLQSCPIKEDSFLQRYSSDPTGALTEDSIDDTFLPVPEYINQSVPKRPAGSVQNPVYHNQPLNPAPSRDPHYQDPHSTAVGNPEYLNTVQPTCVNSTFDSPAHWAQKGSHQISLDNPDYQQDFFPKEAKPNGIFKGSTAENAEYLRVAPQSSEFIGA

Compound | IC50 [µM]
C=CCN(c1ncnc(Nc2ccc(NC(=O)C=C)cc2)n1)n1c(=O)[nH]c2ccccc21 | < 50
C=CCN(c1ccc(C(=O)OC)cc1)c1ncnc(Nc2ccc(NC(=O)C=C)cc2)n1 | < 50
CC#CC(=O)Nc1cccc(Nc2ncnc(Nc3cccc4ccccc34)n2)c1 | < 50
C=CC(=O)Nc1ccc(Nc2ncnc(Nc3cccc(S(=O)(=O)c4ccc([N+](=O)[O-])cc4)c3)n2)cc1 | < 50
C=CCN(c1ccc(OC)c(OC)c1)c1ncnc(Nc2ccc(NC(=O)C=C)cc2)n1 | < 50
C=CC(=O)N(CCCN1CCOCC1)c1cccc(Nc2ncnc(N(C)C3CC3c3ccccc3)n2)c1 (configuration not stated) | < 50
CC#CC(=O)Nc1cccc(Nc2ncnc(N(CC)c3ccc(C(=O)OC)cc3)n2)c1 | < 50
CC#CC(=O)Nc1cccc(Nc2ncnc(N(CC)c3cccc(C(N)=O)c3)n2)c1 | < 50
C=CCN(c1ncnc(Nc2cccc(NC(=O)C=C)c2)n1)c1cccc2ccccc12 | < 50
C=CC(=O)Nc1cccc(Nc2ncnc(Nc3ccc(OCc4cccc(F)c4)cc3)n2)c1 | < 50
CC#CC(=O)Nc1cccc(Nc2ncnc(N(C)c3cccc(Cl)c3)n2)c1 | < 50
C=CCN(c1ncnc(Nc2cccc(NC(=O)C#CC)c2)n1)c1cc(Cl)cc2ccccc12 | < 50
C=CC(=O)Nc1ccc(Nc2ncnc(Nc3ccc4c(cnn4Cc4ccccc4)c3)n2)cc1 | < 50
C=CCN(c1ccc(OCC)c(OCC)c1)c1ncnc(Nc2ccc(NC(=O)C=C)cc2)n1 | < 50
C=CC(=O)Nc1ccc(Nc2ncnc(N(CC)c3cccc(Cl)c3)n2)cc1 | < 50
C=CC(=O)Nc1cccc(Nc2ncnc(N(CC)c3ccc(F)c(Cl)c3)n2)c1 | < 50
C=CCN(c1ccc(OCCO)cc1)c1ncnc(Nc2ccc(NC(=O)C=C)cc2)n1 | < 50
C=CCN(c1ccc(OCc2ccccc2)cc1)c1ncnc(Nc2cccc(NC(=O)C#CC)c2)n1 | < 50
CC#CC(=O)Nc1cccc(Nc2ncnc(NC3CC3c3ccccc3)n2)c1 (configuration not stated) | < 50
C=CC(=O)Nc1ccc(Nc2ncnc(N(CC)c3ccc(F)c(Cl)c3)n2)cc1 | < 50
C=CC(=O)Nc1cccc(Nc2ncnc(Nc3ccc(OCc4cccc(F)c4)c(Cl)c3)n2)c1 | < 50
C=CC(=O)Nc1cccc(Nc2ncnc(N(CC)c3cccc4ccccc34)n2)c1 | < 50
CC#CC(=O)Nc1cc(Nc2ncnc(N(C)c3ccc4c(cnn4Cc4ccccc4)c3)n2)ccc1OCCCN1CCOCC1 | < 50
C=CCN(c1cccc(C)c1)c1ncnc(Nc2cccc(NC(=O)C=C)c2)n1 | < 50
CC#CC(=O)Nc1cccc(Nc2ncnc(N(C)c3ccc(C(=O)OC)cc3)n2)c1 | < 50

Compound | IC50 [µM]
C=CC(=O)Nc1ccc(Nc2ncnc(Nc3cc(OC)c(OC)c(OC)c3)n2)cc1 | < 50
C=CC(=O)Nc1cccc(Nc2ncnc(N(CC)c3ccc(C(=O)OC)cc3)n2)c1 | < 50
CC#CC(=O)Nc1cccc(Nc2ncnc(N(C)c3ccc(OCCOC)c(OC)c3)n2)c1 | < 50
CC#CC(=O)Nc1cccc(Nc2ncnc(N(CC)n3c(=O)[nH]c4ccccc43)n2)c1 | < 50
C=CC(=O)Nc1cccc(Nc2ncnc(Nc3cccc(C)c3)n2)c1 | < 50
C=CC(=O)N(CCCN1CCOCC1)c1cccc(Nc2ncnc(Nc3ccc(F)c(Cl)c3)n2)c1 | < 50
CC#CC(=O)Nc1cccc(Nc2ncnc(N(C)c3cc(Cl)ccc3C)n2)c1 | < 50
C=CCN(c1ncnc(Nc2cccc(NC(=O)C#CC)c2)n1)n1c(=O)[nH]c2ccccc21 | < 50
C=CC(=O)N(CCCN1CCOCC1)c1cccc(Nc2ncnc(N(C)c3ccc4c(cnn4Cc4ccccc4)c3)n2)c1 | < 50
C=CC(=O)Nc1cccc(Nc2ncnc(Nc3cccc4ccccc34)n2)c1 | < 50
CC#CC(=O)Nc1cccc(Nc2ncnc(N(C)c3cc(OC)c(OC)c(OCCN4CCOCC4)c3)n2)c1 | < 50
CC#CC(=O)Nc1cccc(Nc2ncnc(N(CC)C3CC3c3ccccc3)n2)c1 (configuration not stated) | < 50
C=CC(=O)Nc1cccc(Nc2ncnc(N(C)n3c(=O)n(C(=O)C(C)(C)C)c4ccccc43)n2)c1 | < 50
CC#CC(=O)Nc1cccc(Nc2ncnc(N(CC)c3ccc(OCC)c(OCC)c3)n2)c1 | < 50
CC#CC(=O)Nc1cccc(Nc2ncnc(N(C)c3cccc(C)c3)n2)c1 | < 50
C=CC(=O)Nc1cccc(Nc2ncnc(NN3CCCc4cc(Cl)ccc43)n2)c1 | < 50
C=CCN(c1ccc(OCCC)c(OCCC)c1)c1ncnc(Nc2cccc(NC(=O)C#CC)c2)n1 | < 50
C=CC(=O)N(CCCN1CCOCC1)c1cccc(Nc2ncnc(Nc3cccc(C)c3)n2)c1 | < 50
CC#CC(=O)Nc1cccc(Nc2ncnc(Nc3ccc4c(cnn4Cc4ccccc4)c3)n2)c1 | < 50
CC#CC(=O)Nc1cccc(Nc2ncnc(N(CC)C3CC3c3ccc(Cl)cc3)n2)c1 (configuration not stated) | < 50
CC#CC(=O)Nc1cc(Nc2ncnc(N(C)c3ccc4c(ccn4Cc4ccccc4)c3)n2)ccc1OCCCC1CCN(C)CC1 | < 50
C/C=C/C(=O)Nc1cccc(Nc2ncnc(Nc3ccc4c(ccn4Cc4ccccc4)c3)n2)c1 | < 50
C=CC(=O)Nc1cc(Nc2ncnc(Nc3ccc(OCc4ccccc4)c(Cl)c3)n2)ccc1OCCCC1CCN(C)CC1 | < 50
C=CC(=O)Nc1ccc(Nc2ncnc(Nc3ccc(C(=O)OC)cc3)n2)cc1 | < 50
C=CC(=O)Nc1ccc(Nc2ncnc(N(CC)c3ccc(OCC)c(OCC)c3)n2)cc1 | < 50

Compound | IC50 [µM]
C=CC(=O)Nc1cccc(Nc2ncnc(N(CC)c3ccc(OC)c(OCCOC)c3)n2)c1 | < 50
CC#CC(=O)Nc1cc(Nc2ncnc(Nc3ccc4c(ccn4Cc4ccccc4)c3)n2)ccc1OCCCC1CCN(C)CC1 | < 50
C=CC(=O)Nc1cccc(Nc2ncnc(NN3CCCc4cc(C)ccc43)n2)c1 | < 50
C/C=C/C(=O)Nc1cccc(Nc2ncnc(NC3CC3c3ccccc3)n2)c1 (configuration not stated) | < 50
C=CC(=O)Nc1ccc(Nc2ncnc(NN3CCCc4cc(C)ccc43)n2)cc1 | < 50
CC#CC(=O)Nc1cccc(Nc2ncnc(N(C)c3cc(Cl)cc4ccccc34)n2)c1 | < 50
C=CC(=O)Nc1cccc(Nc2ncnc(N(CC)c3cc(Cl)ccc3C)n2)c1 | < 50
CC#CC(=O)Nc1cccc(Nc2ncnc(N(CC)c3cccc4ccccc34)n2)c1 | < 50
C=CC(=O)Nc1cccc(Nc2ncnc(N(C)c3cc(Cl)cc4ccccc34)n2)c1 | < 50
C=CC(=O)Nc1ccc(Nc2ncnc(Nc3cc(Cl)ccc3C)n2)cc1 | < 50
C=CC(=O)N1CCc2ccc(Nc3ncnc(Nc4ccc5c(cnn5Cc5ccccc5)c4)n3)cc21 | < 50
CC#CC(=O)Nc1cccc(Nc2ncnc(Nc3cccc(C)c3)n2)c1 | < 50
C=CC(=O)Nc1cccc(Nc2ncnc(Nc3cc(Cl)ccc3C)n2)c1 | < 50
C=CC(=O)Nc1cc(Nc2ncnc(N(C)c3ccc4c(cnn4Cc4ccccc4)c3)n2)ccc1OCCCN1CCOCC1 | < 50
C=CC(=O)Nc1ccc(Nc2ncnc(NN3CCCc4c(Cl)cccc43)n2)cc1 | < 50
CC#CC(=O)Nc1cccc(Nc2ncnc(Nc3ccc4NN(=Cc4c3)Cc5ccccn5)n2)c1 | < 50
C=CC(=O)Nc1cccc(Nc2ncnc(N(CC)c3ccc(OCC)c(OCC)c3)n2)c1 | < 50
C=CC(=O)Nc1cccc(Nc2ncnc(N(C)c3cccc(CC(=O)OC)c3)n2)c1 | < 50
C=CC(=O)Nc1cccc(Nc2ncnc(Nc3ccc(OC)c(OC)c3)n2)c1 | < 50
CC#CC(=O)Nc1cccc(Nc2ncnc(Nc3ccc(OCCOC)c(OC)c3)n2)c1 | < 50
O=C(/C=C/c1cccc(Nc2ncnc(Nc3ccc4c(cnn4Cc4ccccc4)c3)n2)c1)NCCCN1CCOCC1 | < 50
CC#CC(=O)Nc1cccc(Nc2ncnc(Nc3ccc(OCc4ccccc4)c(Cl)c3)n2)c1 | < 50
C=CC(=O)Nc1cccc(Nc2ncnc(Nc3ccc(F)c(Cl)c3)n2)c1 | < 50
C=CC(=O)Nc1ccc(Nc2ncnc(Nc3ccc(OC)c(OC)c3)n2)cc1 | < 50
C=CC(=O)Nc1ccc(Nc2ncnc(N(CC)c3cccc(C)c3)n2)cc1 | < 50

Compound | IC50 [µM]
CC#CC(=O)Nc1cccc(Nc2ncnc(Nc3ccc(OCCC)c(OCCC)c3)n2)c1 | < 50
CC#CC(=O)Nc1cc(Nc2ncnc(N(C)c3cccc(Cl)c3)n2)ccc1OCCCN1CCOCC1 | < 50
C=CC(=O)Nc1ccc(Nc2ncnc(N(C)C3CC3c3ccccc3)n2)cc1 (configuration not stated) | < 50
CC#CC(=O)Nc1cccc(Nc2ncnc(N(C)c3cccc(CC(=O)OC)c3)n2)c1 | < 50
C=CCN(c1ccc(OCCO)cc1)c1ncnc(Nc2cccc(NC(=O)C=C)c2)n1 | < 50
C=CCN(c1cccc(S(=O)(=O)c2ccc([N+](=O)[O-])cc2)c1)c1ncnc(Nc2ccc(NC(=O)C=C)cc2)n1 | < 50
C=CC(=O)Nc1cccc(Nc2ncnc(N(C)c3ccc(OC)c(OC)c3)n2)c1 | < 50
CC#CC(=O)Nc1cc(Nc2ncnc(N(C)c3ccc(OCc4ccccc4)c(Cl)c3)n2)ccc1OCCCC1CCN(C)CC1 | < 50
C=CC(=O)Nc1ccc(Nc2ncnc(N(C)c3ccc4c(ccn4Cc4ccccc4)c3)n2)cc1 | < 50
C=CC(=O)Nc1ccc(Nc2ncnc(Nc3cccc(C)c3)n2)cc1 | < 50
C#CCC(=O)Nc1cccc(Nc2ncnc(NN3CCCc4c(Cl)cccc43)n2)c1 | < 50
C=CCN(c1ncnc(Nc2ccc(NC(=O)C=C)cc2)n1)c1cc(Cl)cc2ccccc12 | < 50
C=CC(=O)Nc1ccc(Nc2ncnc(N(C)c3cccc4ccccc34)n2)cc1 | < 50
CC#CC(=O)Nc1cccc(Nc2ncnc(N(CC)c3cc(OC)c(OC)c(OCCN4CCOCC4)c3)n2)c1 | < 50
C=CC(=O)Nc1ccc(Nc2ncnc(N(CC)C3CC3c3ccc(Cl)cc3)n2)cc1 (configuration not stated) | < 50
C=CC(=O)Nc1cccc(Nc2ncnc(Nc3ccc(OCc4ccccc4)cc3)n2)c1 | < 50
C=CC(=O)Nc1ccc(Nc2ncnc(N(C)c3ccc(OCCO)cc3)n2)cc1 | < 50
C=CC(=O)N(CCCN1CCOCC1)c1cccc(Nc2ncnc(Nc3ccc(OCc4ccccc4)cc3)n2)c1 | < 50
C=CC(=O)Nc1cccc(Nc2ncnc(N(C)c3ccc(C(=O)OC)cc3)n2)c1 | < 50
C=CC(=O)Nc1ccc(Nc2ncnc(NN3CCCc4cc(Cl)ccc43)n2)cc1 | < 50
C=CCN(c1ccc2c(cnn2Cc2ccccc2)c1)c1ncnc(Nc2cccc(NC(=O)C#CC)c2)n1 | < 50
C=CC(=O)N(CCCN1CCOCC1)c1cccc(Nc2ncnc(Nc3cccc4ccccc34)n2)c1 | < 50
